Experimental data as given in PubChem BioAssay (NCI).
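Grown in 96-well plates, cells were treated for 48 hours with each compound at five concentrations. Insufficient inhibition: endpoint recorded as highest concentration tested. Definition used: TGI = concentration required for complete inhibition of growth.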

Columns and labels:
Test in all cases: NCI tumour cell line growth inhibition, 48 h
[1] = tested on: UACC-62 melanoma
[2] = tested on: HL-60(TB) leukemia
[3] = tested on: SK-MEL-5 melanoma
[4] = tested on: SF-268 CNS
[5] = tested on: MALME-3M melanoma
[6] = tested on: MOLT-4 leukemia
[7] = tested on: SN12C renal
[8] = tested on: HCC-2998 colon
[9] = tested on: SK-MEL-28 melanoma
[10] = tested on: OVCAR-3 ovarian
[11] = tested on: NCI-H522 lung
[12] = tested on: K-562 leukemia
[13] = tested on: CCRF-CEM leukemia
[14] = tested on: RPMI-8226 leukemia
[15] = tested on: HOP-62 NSCLC
[16] = tested on: MDA-MB-231 breast
[17] = tested on: MDA-MB-435
[18] = tested on: HS 578T breast

SMILES	TGI [1] [µM]	TGI [2] [µM]	TGI [3] [µM]	TGI [4] [µM]	TGI [5] [µM]	TGI [6] [µM]	TGI [7] [µM]	TGI [8] [µM]	TGI [9] [µM]	TGI [10] [µM]	TGI [11] [µM]	TGI [12] [µM]	TGI [13] [µM]	TGI [14] [µM]	TGI [15] [µM]	TGI [16] [µM]	TGI [17] [µM]	TGI [18] [µM]
COc1cccc2c1CCc1ccccc1CC2=O	> 100	> 100	> 100	> 100	> 100	> 100	> 100	> 100	> 100	> 100	> 100	> 100	> 100	> 100				
COc1ccc(N2C(=O)C3c4[nH]c5ccc(OC)cc5c4C4CCC(C(C)(C)C)CC4C3C2=O)cc1 (configuration not stated)	> 100	> 100	> 100	> 100	58	> 100	> 100	> 100	> 100	> 100	89.3	> 100	> 100	> 100	52.5			
CN(C)c1ccc(-c2cc(=O)c3cc4c(cc3[nH]2)OCO4)cc1	> 100	> 100	> 100	> 100	> 100	> 100	> 100	> 100	> 100	> 100		> 100	> 100	> 100	> 100			
C/C(=N\NS(=O)(=O)c1ccc(C)cc1)C(CN1CCOCC1)C(c1ccccc1)c1c(O)c2ccccc2oc1=O (configuration not stated)	> 100	76.1	> 100	> 100	> 100		> 100			> 100	> 100	> 100	> 100	> 100	> 100			
CC(=O)OC1CCN(C(=O)c2ccccc2)CC1CC1(c2cc3ccccc3[nH]2)OCCO1 (configuration not stated)	> 100	53.6	> 100		> 100	75	> 100	> 100	> 100	> 100	> 100	> 100	> 100	70.4	> 100	> 100	> 100	
CNC(=O)CN(CC(=O)NC)C(=O)NC	> 100	> 100	> 100	> 100	> 100	> 100		> 100	> 100	> 100	> 100	> 100	> 100	> 100	> 100			
O=c1cc(-c2ccccc2)[nH]c2cc(F)c(F)cc12	> 50.1	3.14	18.7	> 20.8	> 100	> 100	> 100	> 30.9	> 100	43.7	10.8	> 100	> 100	> 100	> 100	> 77.2		> 28.9
